Results on eight compounds are retold here after article PMC6114082, “Synthesis of aminophenylhydroxamate and aminobenzylhydroxamate derivatives and in vitro screening for antiparasitic and histone deacetylase inhibitory activity” (International Journal for Parasitology: Drugs and Drug …, 2018).

Each structure is given as a SMILES string. Like-named read-outs stand apart in the source and are kept apart here. Some results are limits rather than exact numbers.

Data set [1] has as its system L. infantum MHOM/MA/67/ITMAP-264. Kind of data set: Antileishmanial activity, L. infantum promastigotes (luciferase expressing strain). The data set is classed as cell-based, Leishmania infantum. The following applies: for IS^b selectivity index for L. infantum: IC50 THP-1 / IC50 Leishmania infantum (footnote); for IC50: promastigotes, luciferase expressing strain. As for the experimental part: (§1) The antitrypanosomatid activity of the compounds was ascertained as follows. Leishmania parasites were cultured at 26 °C in SDM-79 medium supplemented with 10% fetal calf serum (FCS), and the antileishmanial activity was determined according to a previously published protocol for LUC-expressing and wild-type Leishmania ([Sereno et al., 2001], [Abbassi et al., 2008]). Trypanosoma brucei gambiense were grown at 26 °C in Cunningham's medium supplemented with 10% FCS, 2 mM GlutaMAX-1 (Gibco, USA), 100 U/ml penicillin, 100 μg/ml streptomycin and […] bovine hemin. The epimastigote form of Trypanosoma cruzi (strain Y cl7 scl2, lineage Tc2) (kindly provided by Philippe Truc and Christian Barnabé, UMR 177 IRD-CIRAD InterTryp, Montpellier, France) were grown at 26 °C in liver infusion tryptose (LIT) medium, supplemented with 10% FCS, 2 mM GlutaMAX™-I, 100 U/ml penicillin, 100 μg/ml streptomycin and bovine hemin (20 mg/l) (Gibco). The antitrypanosomatids activity was determined using a protocol that was initialy set up for wild-type Leishmania ([Abbassi et al., 2008]). To assess the drug activity on Toxoplasma gondii, confluent human foreskin fibroblast (HFF) monolayers were infected with YFP-type I Rh kindly provided by B. Striepen, see ([Striepen et al., 1998]) or Tomato-type II Pru kindly provided by N. Blanchard (Toulouse), expressing parasites at 5 × 10^4 per well, which were then centrifuged for 30 s at 1300 rpm and incubated for 30 min in a water bath at 37 °C to allow invasion. The wells were then washed three times with PBS to eliminate extracellular parasites, and the drugs were added at various concentrations ranging from 1 to 50 μM. After incubation for 24 h at 37 °C in a humidified atmosphere containing 5% CO2, the cells were fixed in 2.5% methanol-free formaldehyde (Tebu-bio)/PBS for 30 min at room temperature. Nuclei were stained with Hoechst 33258 (2 μg/ml, Molecular Probes) for 20 min and then washed three times with water for 10 min each time. The number of infected cells, i.e., cells harboring a parasitophorous vacuole, and the number of parasites per vacuole were determined using an Olympus ScanR microscope ( × 20 objective) and ScanR software. The parasitic index in % compared to the control was calculated as follows: (PI=((number of parasite/100 cells in treated wells) x (% of infected macrophage in treated well)/(number of parasite/100 cells in untreated wells) x (% of infected macrophage in untreated wells))*100).

In data set [2] the test system is L. tropica MHOM/BR/73/5-ASKM. The data set is described as follows: Antileishmanial activity, L. tropica promastigotes. In kind it is cell-based, Leishmania tropica. How it is done:
as §1

The subject of data set [3] is T. brucei MHOM/CI/81/DAL967. The data set is described as follows: Antitrypanosomal activity, T. brucei. In kind it is cell-based, Trypanosoma brucei gambiense. How it is done: as §1
A further data set concerns Leishmania. The data set is described as follows: Antileishmanial activity, Leishmania species summarised in text. The data set is classed as cell-based, Leishmania spp. Conditions: abstract sentence also covers antitrypanosomal activity, read-out: antileishmanial activity IC50, summarised over species. As for the experimental part: The antitrypanosomatid activity of the compounds was ascertained as follows. Leishmania parasites were cultured at 26 °C in SDM-79 medium supplemented with 10% fetal calf serum (FCS), and the antileishmanial activity was determined according to a previously published protocol for LUC-expressing and wild-type Leishmania ([Sereno et al., 2001], [Abbassi et al., 2008]). Trypanosoma brucei gambiense were grown at 26 °C in Cunningham's medium supplemented with 10% FCS, 2 mM GlutaMAX-1 (Gibco, USA), 100 U/ml penicillin, 100 μg/ml streptomycin and 20 mg/ml bovine hemin. […] The antitrypanosomatids activity was determined using a protocol that was initialy set up for wild-type Leishmania ([Abbassi et al., 2008]). […] The number of infected cells, i.e., cells harboring a parasitophorous vacuole, and the number of parasites per vacuole were determined using an Olympus ScanR microscope ( × 20 objective) and ScanR software. The parasitic index in % compared to the control was calculated as follows: (PI=((number of parasite/100 cells in treated wells) x (% of infected macrophage in treated well)/(number of parasite/100 cells in untreated wells) x (% of infected macrophage in untreated wells))*100).

Data set [4] has as its system L. braziliensis MHOM/BR/75/M209. The data set is described as follows: Antileishmanial activity, L. braziliensis promastigotes (luciferase expressing strain). In kind it is cell-based, Leishmania braziliensis. How it is done:
as §1

The test system of data set [5] is T. gondi RH-YFP. The data set is described as follows: Anti-Toxoplasma activity in infected HFF monolayers, type I RH-YFP (parasitic index). Conditions: for IS^a selectivity index for T. gondi: IC50 HFF / IC50 T. gondi RH-YFP; for IC50: 24 h, type I strain, in HFF, read-out: T. gondi RH-YFP IC50. The data set is classed as cell-based, Toxoplasma gondii.
Data set [6] concerns HeLa nuclear extract (HDAC 1, 2, 6, and 8 predominant). The data set is described as follows: Fluorometric HDAC assay, HeLa nuclear extract. In kind it is biochemical. Conditions: HeLa nuclear extract; read-out: HDACi HeLa IC50. As for the experimental part:
The HDACi effect against HeLa nuclear extracts and recombinant proteins were measured using a fluorometric HDAC assay kit (Active Motif, Belgium) according to the manufacturer's instructions. […] A negative control containing trichostatin A at a final concentration of 2 μM was analyzed for each independent experiment.

Data set [7] is described as follows: Cytotoxicity, MTT assay, HFF. In kind it is cell-based, human. Conditions: human, HFF cells. As for the experimental part: (§2) The human monocytic cell line THP-1 was cultivated in RPMI medium supplemented with 10% FCS, 2 mM GlutaMAX, 100 U/ml penicillin, and 100 μg/ml streptomycin. HFF cells were cultivated in Dulbecco's modified Eagle's medium (DMEM) with Earle's salts containing 10% FCS, 10 mM HEPES, 1 mM sodium pyruvate, 2 mM GlutaMAX, 100 U/ml penicillin, and 100 μg/ml streptomycin. The THP-1 and HFF cells were maintained in a 5% CO2 incubator at 37 °C. Cytotoxicity was evaluated via the MTT assay, and the IC50 values were calculated using Prism software (Prism 4 for Mac OS X, version 5.0b, December, 2008).
A general note: Tetrazolium assays rely on reduction of a dye to a coloured formazan, in cell work by metabolically active cells.

A short description of data set [8]: Cytotoxicity, MTT assay, THP-1. In kind it is cell-based, human. The following applies: human, THP-1 cells (monocytic cell line); MTT assay. How it is done:
as §2

For data set [9], the system named is T. gondi RH-YFP. Details: method as in Butler et al., 2013. Conditions: ref Butler et al., 2013; read-out: anti-Toxoplasma IC50, literature; cited from earlier work.
The next data set concerns HFF cells. The data set is described as follows: Cytotoxicity, MTT assay, HFF. In kind it is cell-based, human. How it is done:
as §2

In the next data set the test system is THP-1 cells. Kind of data set: Cytotoxicity, MTT assay, THP-1. The data set is classed as cell-based, human. The following applies: MTT assay. How it is done: as §2

For the compound `O=C(NO)c1ccc(CNC(=O)c2cccc(F)c2)cc1` [Compound 345, 4-{[(3-fluorophenyl)formamido]methyl}-N-hydroxybenzamide], the “IS^b selectivity index for L. infantum” value in data set [1] came out at 0.3. In addition, the IC50 (as a rule, the concentration that gives 50% inhibition) in [1] (Leishmania infantum) is 27.2 ± 2.5 µM; in [2] (Leishmania tropica), 35.3 ± 12.2 µM; in data set [3] (Trypanosoma brucei), above 60 µM; in the data set on Leishmania, 15 to 50 µM; in [4] (Leishmania braziliensis), 23.5 ± 1.5 µM; in [6], 0.866 ± 0.4 µM. The same compound had an IC50 in [7] of 58.3 ± 1.2 µM. In the data set with T. gondi RH-YFP [5], the “IS^a selectivity index for T. gondi” value was found to be 11.6.

For the compound `O=C(NO)c1ccc(CNS(=O)(=O)c2cccc(F)c2)cc1` [Compound 350, 4-(3-fluorobenzenesulfonamidomethyl)-N-hydroxybenzamide], the IC50 in [1] (Leishmania infantum) is above 60 µM; in [2] (Leishmania tropica) it was above 60 µM; in data set [3] (Trypanosoma brucei) it was above 60 µM; in data set [4] (Leishmania braziliensis) it was above 60 µM; in the data set on T. gondi RH-YFP [5] (Toxoplasma gondii) it was below 50 µM; in data set [7], 300 ± 50 µM. The compound further registered an IC50 in data set [8] above 400 µM. Moreover, in the data set with T. gondi RH-YFP [5], the “IS^a selectivity index for T. gondi” value is 7.5.

With `CCc1nc(N)nc(N)c1-c1ccc(Cl)cc1` [pyrimethamine], in the data set on T. gondi RH-YFP [9], the IC50 was 0.4 µM.

Regarding `COc1cccc(CC(=O)NCc2ccc(C(=O)NO)cc2)c1` [Compound 362, N-hydroxy-4-{[2-(3-methoxyphenyl)acetamido]methyl}benzamide], the “IS^b selectivity index for L. infantum” value in data set [1] is recorded as below 1. The IC50 in data set [1] (Leishmania infantum) is above 60 µM; in [2] (Leishmania tropica), above 60 µM; in data set [3] (Trypanosoma brucei) it was above 60 µM; in data set [4] (Leishmania braziliensis) it was above 60 µM; in the data set on T. gondi RH-YFP [5] (Toxoplasma gondii) it was above 50 µM; in data set [6] it was 0.518 ± 0.146 µM. For the same compound, the IC50 was above 400 µM in [7] and 30.5 ± 3 µM in [8]. The “IS^a selectivity index for T. gondi” value in the data set with T. gondi RH-YFP [5] is reported as above 7.6.

Take `Cc1nc(-c2ccc(C(=O)NCc3ccc(C(=O)NO)cc3)cc2)cs1` [Compound 360]: the IC50 in data set [1] is above 60 µM; in [2] it was 55 ± 15 µM; in data set [3], above 60 µM; in [4], above 60 µM; in [6], 0.399 ± 0.137 µM; with HFF cells, 22.6 ± 9.5 µM. In the data set on THP-1 cells, this compound showed an IC50 of 2.2 ± 0.5 µM.

On to `O=C(NO)c1ccc(NC(=O)c2cccc(F)c2)cc1` [Compound 349, 4-(3-fluorobenzamido)-N-hydroxybenzamide], for which the IC50 in data set [1] (Leishmania infantum) was above 60 µM; in [2] (Leishmania tropica), above 60 µM; in data set [3] (Trypanosoma brucei) it was above 60 µM; in data set [4] (Leishmania braziliensis), above 60 µM; in the data set with T. gondi RH-YFP [5] (Toxoplasma gondii) it was above 50 µM; in [6], 0.633 ± 0.041 µM. Further, the values for the IC50 in data set [7] and in data set [8] were above 400 µM and 264 ± 8 µM, respectively.

On to `Cc1nc(-c2ccc(C(=O)Nc3ccc(C(=O)NO)cc3)cc2)cs1` [Compound 361], for which the IC50 in [1] was above 60 µM; in data set [2], above 60 µM; in [3], above 60 µM; in data set [4] it was above 60 µM; in the data set on T. gondi RH-YFP [5], above 50 µM; in data set [6] it was above 1.8 µM. Moreover, the IC50 in the data set with HFF cells was 25 ± 4 µM; in the data set with THP-1 cells it was above 400 µM.

For `O=C(NO)c1ccc(NS(=O)(=O)c2cccc(F)c2)cc1` [Compound 351, 4-(3-fluorobenzenesulfonamido)-N-hydroxybenzamide], the “IS^b selectivity index for L. infantum” value in data set [1] was below 1. The IC50 in data set [1] (Leishmania infantum) was above 60 µM; in data set [2] (Leishmania tropica), above 60 µM; in data set [3] (Trypanosoma brucei) it was above 60 µM; in data set [4] (Leishmania braziliensis), above 60 µM; with T. gondi RH-YFP [5] (Toxoplasma gondii) it was above 50 µM; in data set [6], 0.881 ± 0.083 µM. Also, the IC50 amounted to 116 ± 3 µM in [7] and 33.5 ± 15 µM in data set [8].
